Results published in patent US6355799B1, “Substituted benzene compounds, process for their preparation, and herbicidal and defoliant compositions containing them” (ISK Americas Incorporated, priority 1997, dated 2002).

How the values were obtained:
Assay type in all cases: in vivo
[1] = test system: large crabgrass (Digitaria sanguinalis, DIGSA); experiment: Pre-emerge test, greenhouse herbicide activity screening; details: rating scale 0-100, 14 days after application
Procedure, shortened: (§1)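 Rating: 0–100 visual injury, 14 DAA. Application: acetone, 187 l/ha, 15–1000 g ai/ha, flat-fan track sprayer with nozzle 40–45 cm above soil or canopy. Post-emerge runs used 0.25% v/v surfactant on 2–3 leaf plants.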

[2] = test system: lambsquarters (Chenopodium album, CHEAL); experiment: as above; details: rating scale 0-100, 14 days after application
Procedure, shortened: as §1

[3] = test system: green foxtail (Setaria viridis, SETVI); experiment: as above; details: rating scale 0-100, 14 days after application
Procedure, shortened: as §1

[4] = test system: velvetleaf (Abutilon theophrasti, ABUTH); experiment: as above; details: rating scale 0-100, 14 days after application
Procedure, shortened: as §1

[5] = test system: common ragweed (Ambrosia artemisizfolia L., AMBEL); experiment: as above; details: rating scale 0-100, 14 days after application
Procedure, shortened: as §1

[6] = test system: johnsongrass (Sorghum halepense, SORHA); experiment: as above; details: rating scale 0-100, 14 days after application
Procedure, shortened: as §1

[7] = test system: barnyardgrass (Echinochloa crus-galli, ECHCG); experiment: as above; details: rating scale 0-100, 14 days after application
Procedure, shortened: as §1

[8] = test system: sicklepod (Cassia obtusifolia, CASOB); experiment: as above; details: rating scale 0-100, 14 days after application
Procedure, shortened: as §1

[9] = test system: ivyleaf morningglory (Ipomoea hederacea, IPOHE); experiment: as above; details: rating scale 0-100, 14 days after application
Procedure, shortened: as §1

[10] = test system: redroot pigweed (Amaranthus retroflexus, AMARE); experiment: as above; details: rating scale 0-100, 14 days after application
Procedure, shortened: (§2)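 Visual ratings on a 0-100 scale (0 no damage, 100 all plants dead) were taken at 14 days after treatment. Rates of 15-1000 g ai/ha in acetone, 187 l/ha, were sprayed onto soil one day after planting (pre-emerge) or onto 2-3 leaf plants with 0.25% v/v surfactant (post-emerge).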

[11] = test system: large crabgrass (Digitaria sanguinalis, DIGSA); experiment: Post-emerge test, greenhouse herbicide activity screening; details: rating scale 0-100 (0 no damage, 100 complete death), 14 days after application
Procedure, shortened: (§3)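 Compounds in acetone were track-sprayed at 15-1000 g ai/ha (187 l/ha) on sandy loam pots: pre-emerge one day after seeding, post-emerge at 2-3 leaf stage with 0.25% v/v non-ionic surfactant. Phytotoxicity was rated 14 days later on a 0 (no damage) to 100 (complete death) scale.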

[12] = test system: lambsquarters (Chenopodium album, CHEAL); experiment: as above; details: rating scale 0-100 (0 no damage, 100 complete death), 14 days after application
Procedure, shortened: as §3

[13] = test system: green foxtail (Setaria viridis, SETVI); experiment: as above; details: rating scale 0-100 (0 no damage, 100 complete death), 14 days after application
Procedure, shortened: as §3

[14] = test system: velvetleaf (Abutilon theophrasti, ABUTH); experiment: as above; details: rating scale 0-100 (0 no damage, 100 complete death), 14 days after application
Procedure, shortened: as §3

[15] = test system: johnsongrass (Sorghum halepense, SORHA); experiment: as above; details: rating scale 0-100 (0 no damage, 100 complete death), 14 days after application
Procedure, shortened: as §3

[16] = test system: redroot pigweed (Amaranthus retroflexus, AMARE); experiment: as above; details: rating scale 0-100 (0 no damage, 100 complete death), 14 days after application
Procedure, shortened: as §3

[17] = test system: barnyardgrass (Echinochloa crus-galli, ECHCG); experiment: as above; details: rating scale 0-100 (0 no damage, 100 complete death), 14 days after application
Procedure, shortened: as §3

[18] = test system: sicklepod (Cassia obtusifolia, CASOB); experiment: as above; details: rating scale 0-100 (0 no damage, 100 complete death), 14 days after application
Procedure, shortened: as §3

[19] = test system: ivyleaf morningglory (Ipomoea hederacea, IPOHE); experiment: as above; details: rating scale 0-100 (0 no damage, 100 complete death), 14 days after application
Procedure, shortened: as §3

[20] = test system: field corn (Zea mays L., var. Dekalb 535, CORN); experiment: Post-emerge test, crop safety; details: rating scale 0-100 (0 no damage, 100 complete death), 14 days after application
Procedure, shortened: (§4)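 Plants grown in 10 cm pots of sandy loam mix received acetone-dissolved compounds through a moving flat-fan nozzle. Doses ranged from 15 to 1000 g ai/ha. Pre-emerge pots were seeded one day earlier, post-emerge pots 8–21 days earlier. Fourteen days on, each pot was graded 0–100 for damage.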

[21] = test system: upland rice (Oryza sp., var. Tebonnet, RICE); experiment: Post-emerge test, crop safety; details: rating scale 0-100 (0 no damage, 100 complete death), 14 days after application
Procedure, shortened: as §4

[22] = test system: field corn (Zea mays L., var. Dekalb 535, CORN); experiment: Pre-emerge test, crop safety; details: rating scale 0-100, 14 days after application
Procedure, shortened: as §2

[23] = test system: upland rice (Oryza sp., var. Tebonnet, RICE); experiment: Pre-emerge test, crop safety; details: rating scale 0-100, 14 days after application
Procedure, shortened: as §2

SMILES: C=CCOC(=O)C(C)(Cl)Cc1c(OC)c(Cl)cc(F)c1-n1c(=O)cc(C(F)(F)F)n(C)c1=O (stereo not shown) [14-43]
- Pre-emerge herbicidal activity, phytotoxicity rating DIGSA ([1]; 63 g ai/ha): 80
- Pre-emerge herbicidal activity, phytotoxicity rating DIGSA ([1]; 250 g ai/ha): 100
- Pre-emerge herbicidal activity, phytotoxicity rating CHEAL ([2]; 63 g ai/ha): 100
- Pre-emerge herbicidal activity, phytotoxicity rating CHEAL ([2]; 250 g ai/ha): 100
- Pre-emerge herbicidal activity, phytotoxicity rating SETVI ([3]; 63 g ai/ha): 30
- Pre-emerge herbicidal activity, phytotoxicity rating SETVI ([3]; 250 g ai/ha): 95
- Pre-emerge herbicidal activity, phytotoxicity rating ABUTH ([4]; 63 g ai/ha): 90
- Pre-emerge herbicidal activity, phytotoxicity rating ABUTH ([4]; 250 g ai/ha): 100
- Pre-emerge herbicidal activity, phytotoxicity rating AMBEL ([5]; 63 g ai/ha): 0
- Pre-emerge herbicidal activity, phytotoxicity rating AMBEL ([5]; 250 g ai/ha): 100
- Pre-emerge herbicidal activity, phytotoxicity rating SORHA ([6]; 63 g ai/ha): 20
- Pre-emerge herbicidal activity, phytotoxicity rating SORHA ([6]; 250 g ai/ha): 30
- Pre-emerge herbicidal activity, phytotoxicity rating ECHCG ([7]; 63 g ai/ha): 0
- Pre-emerge herbicidal activity, phytotoxicity rating ECHCG ([7]; 250 g ai/ha): 80
- Pre-emerge herbicidal activity, phytotoxicity rating CASOB ([8]; 63 g ai/ha): 0
- Pre-emerge herbicidal activity, phytotoxicity rating CASOB ([8]; 250 g ai/ha): 0
- Pre-emerge herbicidal activity, phytotoxicity rating IPOHE ([9]; 63 g ai/ha): 0
- Pre-emerge herbicidal activity, phytotoxicity rating IPOHE ([9]; 250 g ai/ha): 0
- Pre-emerge herbicidal activity, phytotoxicity rating AMARE ([10]; 63 g ai/ha): 100
- Pre-emerge herbicidal activity, phytotoxicity rating AMARE ([10]; 250 g ai/ha): 100
- Post-emerge Herbicidal Activity, phytotoxicity rating DIGSA ([11]; Rate 63 g ai/ha): 80
- Post-emerge Herbicidal Activity, phytotoxicity rating DIGSA ([11]; Rate 250 g ai/ha): 100
- Post-emerge Herbicidal Activity, phytotoxicity rating CHEAL ([12]; Rate 63 g ai/ha): 100
- Post-emerge Herbicidal Activity, phytotoxicity rating CHEAL ([12]; Rate 250 g ai/ha): 100
- Post-emerge Herbicidal Activity, phytotoxicity rating SETVI ([13]; Rate 63 g ai/ha): 90
- Post-emerge Herbicidal Activity, phytotoxicity rating SETVI ([13]; Rate 250 g ai/ha): 100
- Post-emerge Herbicidal Activity, phytotoxicity rating ABUTH ([14]; Rate 63 g ai/ha): 100
- Post-emerge Herbicidal Activity, phytotoxicity rating ABUTH ([14]; Rate 250 g ai/ha): 100
- Post-emerge Herbicidal Activity, phytotoxicity rating SORHA ([15]; Rate 63 g ai/ha): 80
- Post-emerge Herbicidal Activity, phytotoxicity rating SORHA ([15]; Rate 250 g ai/ha): 95
- Post-emerge Herbicidal Activity, phytotoxicity rating AMARE ([16]; Rate 63 g ai/ha): 100
- Post-emerge Herbicidal Activity, phytotoxicity rating AMARE ([16]; Rate 250 g ai/ha): 100
- Post-emerge Herbicidal Activity, phytotoxicity rating ECHCG ([17]; Rate 63 g ai/ha): 100
- Post-emerge Herbicidal Activity, phytotoxicity rating ECHCG ([17]; Rate 250 g ai/ha): 100
- Post-emerge Herbicidal Activity, phytotoxicity rating CASOB ([18]; Rate 63 g ai/ha): 40
- Post-emerge Herbicidal Activity, phytotoxicity rating CASOB ([18]; Rate 250 g ai/ha): 90
- Post-emerge Herbicidal Activity, phytotoxicity rating IPOHE ([19]; Rate 63 g ai/ha): 95
- Post-emerge Herbicidal Activity, phytotoxicity rating IPOHE ([19]; Rate 250 g ai/ha): 100
- Post-emerge phytotoxicity rating CORN (crop damage) ([20]; Rate 63 g ai/ha): 95
- Post-emerge phytotoxicity rating CORN (crop damage) ([20]; Rate 250 g ai/ha): 100
- Post-emerge phytotoxicity rating RICE (crop damage) ([21]; Rate 63 g ai/ha): 95
- Post-emerge phytotoxicity rating RICE (crop damage) ([21]; Rate 250 g ai/ha): 100
- Pre-emerge phytotoxicity rating, crop damage CORN ([22]; 63 g ai/ha): 0
- Pre-emerge phytotoxicity rating, crop damage CORN ([22]; 250 g ai/ha): 20
- Pre-emerge phytotoxicity rating, crop damage RICE ([23]; 63 g ai/ha): 10
- Pre-emerge phytotoxicity rating, crop damage RICE ([23]; 250 g ai/ha): 40
